Patent EP4700025A1, “AMIDE COMPOUND, PHARMACEUTICAL COMPOSITION COMPRISING SAME, AND USE THEREOF” (Suzhou Genhouse Bio Co., Ltd., priority 2023, dated 2024)
One block for each compound: values may come before it.

Columns and labels:
[1] = test system: HCT-116-MTAP^-/-; assay: CCK8 proliferation inhibition, HCT-116-MTAP^-/-; type: cell-based; conditions: Homo sapiens, 192 h; HCT-116-MTAP^-/- (MTAP-deficient); CCK8, 8 days after drug treatment
Method: (§1) The above normally growing cells were digested with a cell trypsinization solution, centrifuged, counted, and seeded into a 96-well plate at an appropriate cell density (2000 cells/well) at 100 µL/well. The next day after cell seeding, the compounds at different concentrations were added to the wells. Three replicate wells were set for each concentration point, and a corresponding DMSO negative control group was also set. CCK8 solution was added to each well 8 days after drug treatment. The plate was incubated at 37 °C for a period of time (OD450 of the vehicle group reached 1.0 or higher) before the absorbance at 450 nm was read using a microplate reader. The inhibition rates were calculated, and the EC50 values were determined by fitting using the GraphPad Prism 7.0 software. Table 2. EC50 values of compounds at cellular level

[2] = test system: A549; assay: CCK8 proliferation inhibition, A549; type: cell-based; conditions: Homo sapiens, 192 h, CCK8, 8 days after drug treatment
Method: as §1

[3] = test system: SDMA; assay: SDMA Inhibition Assay in HCT-116-MTAP^-/- cells; type: cell-based; conditions: Homo sapiens, 96 hours
Method: (§2) The next day, the cells were treated with the compounds at different concentrations (with an initial concentration of 10 µM, 5-fold dilution, 9 concentration gradients). After 96 hours, the culture medium was pipetted out and the cells were washed 2 times with 100 µL of PBS. The cells were then fixed with 4% paraformaldehyde and incubated at room temperature for 20 min. The fixative solution was discarded, and the cells were washed with PBS. 150 µL of specialized blocking solution (containing 1% Triton-100) was added to each well for blocking at room temperature for 2 hours, and the plate was washed with PBS to remove excess blocking solution. […] The cells were incubated at 4 °C overnight. The next day, the cells were separately washed 2 times with 1× PBST. […] The cells were incubated at room temperature for 2 hours. The cells were washed 2 times with 1× PBST and 1 time with PBS. Fluorescence signals at 700 nm and 800 nm were separately detected using a Li-COR Odyssey two-color near-infrared laser imager. The inhibition rates were calculated, and the EC50 values were determined by fitting using the GraphPad Prism 7.0 software. Table 3. Inhibition of SDMA by test compounds

[4] = test system: SDMA; assay: SDMA Inhibition Assay in A549 cells; type: cell-based; conditions: Homo sapiens, A549, 96 hours
Method: as §2

[5] = test system: HCT-116; assay: CCK8 proliferation inhibition, HCT-116; type: cell-based; conditions: Homo sapiens, 192 h, CCK8, 8 days after drug treatment
Method: as §1

[6] = test system: SDMA; assay: SDMA Inhibition Assay in HCT-116 cells; type: cell-based; conditions: Homo sapiens, HCT-116, 96 hours
Method: as §2

[7] = Pharmacokinetic assay in mice; type: in vivo, Balb/c mice; conditions: mouse; for AUC(0-inf) / AUC(0-t) / C0 / MRT inf / Vd / Cmax / Tmax: male, Balb/c, plasma; for MRT inf: read-out: MRT(0-∞); for Vd: read-out: Vz; for F: PO 10mpk vs IV 2mpk
Method: Eighteen male Balb/c mice aged 6 to 8 weeks were randomly divided into 2 groups (IV group and PO group). The corresponding compounds were administered to the animals in the IV group by tail intravenous injection at 2 mg/kg, and the corresponding compounds were administered to the animals in the PO group by oral gavage at 10 mg/kg or 100 mg/kg. The animals in the IV group were allowed free access to food and water, and the animals in the PO group were fasted overnight before administration and were fed 4 h after administration. Throughout the experiment, the animals were allowed free access to water. Plasma samples were separately collected at 0.083 h (only group IV), 0.25 h, 0.5 h, 1 h, 2 h, 4 h, 8 h, and 24 h after administration. About 100 µL of blood was collected from the orbit of the animal, placed into a 1.5 mL anticoagulation centrifuge tube, and centrifuged at 8000 rpm and 4 °C for 10 min. The upper plasma sample was transferred to an EP tube. The plasma samples were stored in a refrigerator at -80 °C until sample analysis. Pharmacokinetic parameters of the drug were calculated based on the drug concentration-time data, including the peak concentration Cmax, peak time Tmax, clearance rate CL, steady state apparent volume of distribution Vss, area under drug-time curve AUC, elimination half-life t1/2, bioavailability, and the like. Data below the 80% lower limit of quantification were excluded from the calculation of pharmacokinetic parameters.

[8] = Pharmacokinetic assay in rats; type: in vivo, SD rats; conditions: rat; for MRT inf: read-out: MRT(0-∞)
Method: In this experimental example, the pharmacokinetic behavior of the test compounds after administration by intravenous injection (IV) and oral gavage (PO) in SD rats was tested.
On the day of administration, rats were weighed for actual body weight, and the administration volume was calculated. Each compound was tested in two groups with 3 rats in each group; one group was subjected to administration by single intravenous injection, and the other group was subjected to administration by single oral gavage. The whole blood samples were collected via the jugular vein at prescribed time points (0.25 h, 0.5 h, 1 h, 2 h, 4 h, 8 h, and 24 h after administration). After the blood sample collection, the samples were immediately transferred to labeled commercial sample tubes containing K2-EDTA (0.85-1.15 mg), followed by centrifugation (3200× g, 4 °C, 10 min) and plasma collection. The plasma was transferred to a pre-cooled centrifuge tube, frozen in dry ice, and then stored in an ultra-low temperature freezer at -60 °C or lower until the LC-MS/MS analysis was performed.
Plasma concentrations were determined by the LC-MS/MS method. Plasma drug concentration data for the compounds were processed using a non-compartmental model in the WinNonlin Version 6.3 (Pharsight, Mountain View, CA) pharmacokinetic software. The relevant pharmacokinetic parameters were calculated by a linear-log trapezoidal method.

Structure (SMILES): Cn1ncc2c(N)nc3cnc(C(=O)N4CCN(C5(C)CC5)CC4c4ccc5c(c4)OC(F)(F)O5)cc3c21 (racemic) [Example I-113]
- EC50 [5]: > 10000 nM
- EC50 [1]: 50.5 nM
- EC50 [6]: 403 nM
- EC50 [3]: 4.1 nM

Structure (SMILES): Cn1ncc2c(N)nc3cnc(C(=O)N4CC5(CC5)OCC4c4ccc5c(c4)OC(F)(F)O5)cc3c21 (stereo not shown) [Example I-110]
- EC50 [6]: > 1000 nM
- EC50 [3]: 36 nM
- EC50 [4]: 19 nM

Structure (SMILES): CN(Cc1ccc2c(c1)OC(F)(F)O2)C(=O)c1ccc2nc(N)c3cnn(C)c3c2c1 [Example I-2]
- EC50 [5]: 6740 nM
- EC50 [1]: 42.6 nM
- EC50 [6]: 1010 nM
- EC50 [3]: 8.3 nM
- EC50 [4]: 5.1 nM
- AUC(0-inf) ([7]; 2 mg/kg, IV 2mpk): 4.11 µM·h
- AUC(0-t) ([7]; 2 mg/kg, IV 2mpk): 3.53 µM·h
- C0 ([7]; 2 mg/kg, IV 2mpk): 1520 nM
- MRT inf ([7]; 2 mg/kg, IV 2mpk): 4 h
- Vd ([7]; 2 mg/kg, IV 2mpk): 4.7 L/kg
- AUC(0-inf) ([7]; 10 mg/kg, PO 10mpk): 18.8 µM·h
- AUC(0-t) ([7]; 10 mg/kg, PO 10mpk): 18.1 µM·h
- Cmax ([7]; 10 mg/kg, PO 10mpk): 2190 nM
- Tmax ([7]; 10 mg/kg, PO 10mpk): 1 h
- MRT inf ([7]; 10 mg/kg, PO 10mpk): 7.1 h
- CLz ([7]; IV 2mpk): 18.3 mL/min/kg
- R_AUC(t/∞) ([7]; IV 2mpk): 85.8%
- t1/2z ([7]; IV 2mpk): 2.8 h
- R_AUC(t/∞) ([7]; PO 10mpk): 96.3%
- t1/2z ([7]; PO 10mpk): 5.5 h
- F [7]: 91.5%
- AUC(0-inf) ([8]; SD, plasma, 2 mg/kg, IV 2mpk): 6.91 µM·h
- AUC(0-t) ([8]; SD, plasma, 2 mg/kg, IV 2mpk): 6.42 µM·h
- C0 ([8]; SD, plasma, 2 mg/kg, IV 2mpk): 2340 nM
- MRT inf ([8]; SD, plasma, 2 mg/kg, IV 2mpk): 4.3 h
- Vd ([8]; SD, plasma, 2 mg/kg, IV 2mpk, read-out: Vz): 3.4 L/kg
- AUC(0-inf) ([8]; SD, plasma, 10 mg/kg, PO 10mpk): 17.2 µM·h
- AUC(0-t) ([8]; SD, plasma, 10 mg/kg, PO 10mpk): 14.8 µM·h
- Cmax ([8]; SD, plasma, 10 mg/kg, PO 10mpk): 1680 nM
- Tmax ([8]; SD, plasma, 10 mg/kg, PO 10mpk): 2.3 h
- MRT inf ([8]; SD, plasma, 10 mg/kg, PO 10mpk): 7.2 h
- CLz ([8]; IV 2mpk): 13 mL/min/kg
- R_AUC(t/∞) ([8]; IV 2mpk): 91.6%
- t1/2z ([8]; IV 2mpk): 3.5 h
- R_AUC(t/∞) ([8]; PO 10mpk): 86.6%
- t1/2z ([8]; PO 10mpk): 4.7 h
- F ([8]; PO 10mpk (IV reference 2mpk; 0.2mpk for I-7)): 49.9%

Structure (SMILES): Cn1ncc2c(N)nc3ccc(C(=O)N4CCOCC4c4ccc5c(c4)OC(F)(F)O5)cc3c21 (single isomer, unassigned) [I-4 (PEAK1)]
- EC50 [5]: 6410 nM
- EC50 [1]: 47.7 nM
- EC50 [6]: 906 nM
- EC50 [3]: 9.1 nM
- EC50 [4]: 6.1 nM

Other lines, results leading:

- EC50 [1]: 3.5 nM
- EC50 [2]: 10.1 nM
- EC50 [3]: 1.7 nM
- EC50 [4]: 0.6 nM
Structure (SMILES): COC[C@H](C)N(Cc1ccc2c(c1)OC(F)(F)O2)C(=O)c1cc2c(cc1F)nc(N)c1cnn(C)c12 [Example I-26]

- EC50 [5]: 3440 nM
- EC50 [1]: 18.3 nM
- EC50 [6]: 1020 nM
- EC50 [3]: 3.1 nM
- EC50 [4]: 3.1 nM
Structure (SMILES): CN(Cc1ccc2c(cnn2C)c1)C(=O)c1cc2c(cc1F)nc(N)c1cnn(C)c12 [Example I-18]

- EC50 [5]: 2370 nM
- EC50 [1]: 8.4 nM
- EC50 [6]: 101 nM
- EC50 [3]: 0.6 nM
- EC50 [4]: 2.1 nM
Structure (SMILES): Cn1ncc2c(N)nc3cc(F)c(C(=O)N4CCOCC4c4ccc5c(c4)OC(F)(F)O5)cc3c21 (stereo not shown) [Example I-3]

- EC50 [5]: > 10000 nM
- EC50 [1]: 16.1 nM
- EC50 [6]: 862 nM
- EC50 [3]: 5.5 nM
- EC50 [4]: 9.2 nM
Structure (SMILES): CN(Cc1ccc2nn(C)cc2c1)C(=O)c1cc2c(cc1F)nc(N)c1cnn(C)c12 [Example I-20]

- EC50 [5]: > 10000 nM
- EC50 [1]: 48.2 nM
- EC50 [6]: 828 nM
- EC50 [3]: 6.6 nM
- EC50 [4]: 7.2 nM
Structure (SMILES): CN(Cc1ccc2cnn(C)c2c1)C(=O)c1cc2c(cc1F)nc(N)c1cnn(C)c12 [Example I-19]

- EC50 [5]: 2360 nM
- EC50 [1]: 4.7 nM
- EC50 [6]: 200 nM
- EC50 [3]: 2.1 nM
- EC50 [4]: 2.6 nM
- AUC(0-inf) ([7]; 2 mg/kg, IV 2mpk): 3.62 µM·h
- AUC(0-t) ([7]; 2 mg/kg, IV 2mpk): 3.32 µM·h
- C0 ([7]; 2 mg/kg, IV 2mpk): 1860 nM
- MRT inf ([7]; 2 mg/kg, IV 2mpk): 2.9 h
- Vd ([7]; 2 mg/kg, IV 2mpk): 4.4 L/kg
- AUC(0-inf) ([7]; 10 mg/kg, PO 10mpk): 12.4 µM·h
- AUC(0-t) ([7]; 10 mg/kg, PO 10mpk): 12.4 µM·h
- Cmax ([7]; 10 mg/kg, PO 10mpk): 1930 nM
- Tmax ([7]; 10 mg/kg, PO 10mpk): 1 h
- MRT inf ([7]; 10 mg/kg, PO 10mpk): 4.8 h
- CLz ([7]; IV 2mpk): 21.7 mL/min/kg
- R_AUC(t/∞) ([7]; IV 2mpk): 91.7%
- t1/2z ([7]; IV 2mpk): 2.4 h
- R_AUC(t/∞) ([7]; PO 10mpk): 99.9%
- t1/2z ([7]; PO 10mpk): 2.4 h
- F [7]: 68.6%
Structure (SMILES): CCN(Cc1ccc2c(c1)OC(F)(F)O2)C(=O)c1ccc2nc(N)c3cnn(C)c3c2c1 [Example I-5]
